Results on eleven compounds are retold here after ChEMBL document CHEMBL1201862, “PubChem BioAssay data set” (2004).

Some test systems named below: COLO 205; HCT-116; A498; SF-268; SN12C; UACC-62; OVCAR-5; A549; SR; MOLT-4; NCI-H460; HT-29; IGROV-1; KM12; HOP-92; HOP-62; SNB-75; RXF 393; SK-MEL-28; Malme-3M.
Assay in all cases: DTP human tumour cell line panel, 48 h

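How tested: cells in 96-well plates exposed to compound for 48 hours at five concentrations. Here, GI50 denotes the concentration required for 50% inhibition of growth.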 Activity calls are given as the source filed them. Rule as the data show it: active = GI50 up to about 1.1 µM and inactive = higher.

As a reminder, the GI50 is the concentration that inhibits growth by half. With `Cc1ccc([N+](=O)[O-])cc1NC(=O)C(=O)C(C(=O)c1ccccc1F)C1OC(=O)c2ccccc21` (centres undefined), the GI50 is 38.9 µM (inactive) with COLO 205; 31.5 µM (inactive) in the test with HCT-116; 98.4 µM (inactive) with A498; 25.5 µM (inactive) with SF-268; 33.8 µM (inactive) in the test with SN12C; 33.7 µM (inactive) with UACC-62. The GI50 in the test with OVCAR-5 was 61.4 µM (inactive); in the test on A549, 50.1 µM (inactive); in the test on SR, 30.3 µM (inactive); in the test on MOLT-4, 36.1 µM (inactive); in the test on NCI-H460, 38.9 µM (inactive); with HT-29 it was 38.5 µM (inactive). Moreover, the GI50 is 59.7 µM (inactive) in the test on IGROV-1; 52.5 µM (inactive) in the test on KM12; > 100 µM (inactive) in the test with HOP-92; 40.7 µM (inactive) in the test with HOP-62; 38.5 µM (inactive) in the test on SNB-75; 20.5 µM (inactive) with RXF 393. Moreover, the GI50 in the test with SK-MEL-28 is 36.4 µM (inactive).
Regarding `CC(=O)OCC1OC(n2c(-c3ccc(Cl)cc3)cc(-c3ccccc3)c(C#N)c2=S)C(OC(C)=O)C(OC(C)=O)C1OC(C)=O` (centres undefined), the GI50 was 13.2 µM (inactive) in the test with COLO 205; 6.11 µM (inactive) in the test on HCT-116; 10.8 µM (inactive) in the test with SF-268; 11.2 µM (inactive) in the test with SN12C; 3.85 µM (inactive) with UACC-62; 19.6 µM (inactive) in the test on OVCAR-5. In addition, the GI50 was 14.5 µM (inactive) in the test with A549; 10.7 µM (inactive) with SR; 12.8 µM (inactive) in the test on MOLT-4; 5.78 µM (inactive) in the test with NCI-H460; 2.87 µM (inactive) in the test with Malme-3M; 7.06 µM (inactive) with HT-29. Besides, the GI50 in the test with IGROV-1 is 13.1 µM (inactive); in the test on KM12, 18.5 µM (inactive); with HOP-92 it was 19.6 µM (inactive); in the test with HOP-62 it was 7.85 µM (inactive); in the test with SNB-75, 8.13 µM (inactive); with RXF 393, 13.3 µM (inactive). In addition, in the test on SK-MEL-28, the GI50 is 6.5 µM (inactive).
With `O=C(O)C(CCc1ccccc1)N1C(=O)c2ccccc2C1=O` (centres undefined), the GI50 in the test with COLO 205, in the test with HCT-116, in the test with A498, in the test with SN12C, in the test with UACC-62 and in the test with OVCAR-5 was > 100 µM (inactive) in each case. Also, the GI50 in the test with A549, with SR, in the test on MOLT-4, with NCI-H460, in the test on HT-29 and with IGROV-1 was > 100 µM (inactive) in each case. The GI50 in the test on KM12, in the test with HOP-92, with HOP-62, with SNB-75, in the test on RXF 393 and with SK-MEL-28 was > 100 µM (inactive) each time.
Take `CC1(C)OP(=O)(O)CC1=O`: the GI50 with COLO 205, in the test on HCT-116, in the test with A498, in the test on SF-268, in the test with SN12C and with UACC-62 was > 100 µM (inactive) each time. For the same compound, the GI50 in the test on OVCAR-5, in the test with A549, in the test on SR, with NCI-H460, in the test on Malme-3M and with HT-29 was > 100 µM (inactive) throughout. For the same compound, the GI50 in the test with IGROV-1, in the test with KM12, in the test with HOP-92, in the test with HOP-62 and in the test with SK-MEL-28 was > 100 µM (inactive) throughout.
As to `CCOC(=O)CSc1c(C(=O)OCC)c(=O)n(-c2ccccc2)c(=S)n1-c1ccccc1`, the GI50 was 65.8 µM (inactive) with COLO 205; 45.7 µM (inactive) in the test with HCT-116; > 100 µM (inactive) in the test on SF-268; 29.6 µM (inactive) with SN12C; 36.3 µM (inactive) in the test with UACC-62; > 100 µM (inactive) with OVCAR-5. The GI50 was 32.1 µM (inactive) in the test with A549; 13.7 µM (inactive) in the test with SR; 5.61 µM (inactive) in the test on MOLT-4; 21.6 µM (inactive) in the test on NCI-H460; > 100 µM (inactive) in the test on Malme-3M; 54.3 µM (inactive) in the test with HT-29. In addition, the GI50 was 20.5 µM (inactive) in the test on IGROV-1; 59.2 µM (inactive) in the test with KM12; 0.0371 µM (active) in the test on HOP-92; > 100 µM (inactive) in the test with HOP-62; 54.6 µM (inactive) in the test on SNB-75; > 100 µM (inactive) in the test with SK-MEL-28.
For `CCOC(=O)Nc1ccc(S(=O)(=O)NCCCl)cc1.CCOC(=O)Nc1ccc(S(=O)(=O)NCCCl)cc1.O=C(O)c1ccc(/N=N/Cl)cc1O`, the GI50 in the test on COLO 205, in the test on A498, in the test with SF-268, in the test on SN12C, in the test on UACC-62 and in the test on OVCAR-5 was > 100 µM (inactive) throughout. Also, the GI50 in the test on A549, in the test on SR, in the test on MOLT-4, in the test with Malme-3M, in the test with HT-29 and in the test on IGROV-1 was > 100 µM (inactive) in each case. Besides, the GI50 in the test with KM12, with HOP-92, in the test on HOP-62, in the test with SNB-75 and with SK-MEL-28 was > 100 µM (inactive) each time.
Regarding `FC(F)(F)C(C1=NC(C(F)(F)F)(C(F)(F)F)N=C(N2CCOCC2)O1)C(F)(F)F`, the GI50 in the test with COLO 205 is 14.3 µM (inactive); in the test on HCT-116 it was 27.7 µM (inactive); in the test with SF-268, 36.1 µM (inactive); in the test on SN12C, 11.1 µM (inactive); with UACC-62, 13.5 µM (inactive); in the test with OVCAR-5, 18.1 µM (inactive). In addition, the GI50 with A549 was 18.5 µM (inactive); with SR, 18.8 µM (inactive); with MOLT-4 it was 28.9 µM (inactive); in the test on NCI-H460, 29 µM (inactive); in the test with HT-29 it was 18.7 µM (inactive); with IGROV-1, 19.6 µM (inactive). The GI50 in the test with KM12 was 39.3 µM (inactive); in the test on HOP-92, 25.8 µM (inactive); with SNB-75, 29.5 µM (inactive); in the test with RXF 393, 15.7 µM (inactive); with SK-MEL-28, 20.1 µM (inactive).
For `CCN(CC)CCCC(C)Nc1cc(-c2ccccc2)nc2cc(OC)ccc12` (centres undefined), the GI50 with COLO 205 is 2.91 µM (inactive); in the test on HCT-116, 2.84 µM (inactive); in the test with A498 it was 5.61 µM (inactive); in the test on SF-268 it was 12.8 µM (inactive); in the test with UACC-62, 17.6 µM (inactive); with OVCAR-5 it was 2.48 µM (inactive). In addition, the GI50 is 2.71 µM (inactive) with SR; 2.14 µM (inactive) with MOLT-4; 2.92 µM (inactive) in the test on NCI-H460; 10.4 µM (inactive) with Malme-3M; 1.94 µM (inactive) in the test with HT-29; 13.2 µM (inactive) in the test on IGROV-1. In addition, the GI50 is 5.33 µM (inactive) in the test with KM12; 2.23 µM (inactive) in the test on HOP-92; 5.25 µM (inactive) in the test with HOP-62; 11.8 µM (inactive) with SNB-75; 6.22 µM (inactive) with SK-MEL-28.
As for `COC1/C=C/C(C)C(C(C)C(OC)C(C)CCC(=O)C(C)C(C/C=C/N(C)C=O)OC)OC(=O)/C=C/C=C(\C)CC(OC)CC2=CC(=O)O[C@H](C2)C(C)C(OC)CC(OC)/C=C/C(C)C(OC)C1` (some centres undefined), the GI50 is < 0.005 µM (active) in the test on HCT-116; 0.0336 µM (active) with SF-268; 0.014 µM (active) in the test on SN12C; 0.00752 µM (active) in the test with UACC-62; 0.0288 µM (active) with A549; < 0.005 µM (active) with SR. The GI50 in the test on MOLT-4 is < 0.005 µM (active); in the test on NCI-H460 it was < 0.005 µM (active); with Malme-3M, 0.00966 µM (active); in the test with HT-29, < 0.005 µM (active); in the test on IGROV-1, 0.0113 µM (active); with KM12, 0.0094 µM (active). Besides, the GI50 is 0.0142 µM (active) in the test on HOP-92; < 0.005 µM (active) in the test on HOP-62; < 0.005 µM (active) in the test on SNB-75; 0.0148 µM (active) in the test on RXF 393; 0.00875 µM (active) with SK-MEL-28.
On to `N#Cc1c(-c2ccccc2)cn(C(=O)c2ccccc2)c1N`, for which the GI50 in the test with COLO 205, in the test on HCT-116, in the test on SF-268, in the test on SN12C, with UACC-62 and with OVCAR-5 was > 100 µM (inactive) each time. Besides, the GI50 with A549, in the test on SR, in the test with MOLT-4, with Malme-3M, with HT-29 and with IGROV-1 was > 100 µM (inactive) each time. For the same compound, the GI50 in the test on KM12, in the test on HOP-92, in the test on HOP-62, with SNB-75 and with SK-MEL-28 was > 100 µM (inactive) each time.
Regarding `OCC1OC(n2ccc3cnccc32)CC1O` (centres undefined), the GI50 in the test with COLO 205, in the test with HCT-116, with A498, with SN12C, with UACC-62 and with OVCAR-5 was > 100 µM (inactive) throughout. Further, the GI50 with A549, with SR, in the test on MOLT-4, in the test with NCI-H460, with Malme-3M and in the test on HT-29 was > 100 µM (inactive) in each case. Also, the GI50 in the test with IGROV-1, with KM12, with HOP-92, with HOP-62, in the test with SNB-75 and in the test with SK-MEL-28 was > 100 µM (inactive) in each case.
